From article PMC10178848, “Modulating fast skeletal muscle contraction protects skeletal muscle in animal models of Duchenne muscular dystrophy” (The Journal of Clinical Investigation, 2023)
Where two headings read alike, the source gives them in different places.

Tests used:
PLK3 = molecular target: T1, PLK3 (Homo sapiens, UniProt Q9H4B4); assay: KINOMEscan scanEDGE; type: binding; conditions: 20 uM
T1 construct: purchased Eurofins DiscoverX (KINOMEscan; SAFETYscan E/IC50 ELECT)

MARK3 = molecular target: T2, MARK3 (Homo sapiens, UniProt P27448); assay: KINOMEscan scanEDGE; type: binding; conditions: 20 uM
T2 construct: purchased Eurofins DiscoverX (KINOMEscan; SAFETYscan E/IC50 ELECT)

PKAC-alpha = molecular target: T3, PKAC-alpha (Homo sapiens, UniProt P17612); assay: KINOMEscan scanEDGE; type: binding; conditions: 20 uM
T3 construct: purchased Eurofins DiscoverX (KINOMEscan; SAFETYscan E/IC50 ELECT)

DYRK1B = molecular target: T4, DYRK1B (Homo sapiens, UniProt Q9Y463); assay: KINOMEscan scanEDGE; type: binding; conditions: 20 uM
T4 construct: purchased Eurofins DiscoverX (KINOMEscan; SAFETYscan E/IC50 ELECT)

mdx mice = assay: Chronic 8-week dosing in mdx mice (fibrosis, weights, histology); type: in vivo, mouse
Source text: C57BL/6 (stock no. 000664), C57BL/10J (stock no. 000665, control for mdx experiments), C57BL/10ScSn-Dmd^mdx/J (mdx, stock no. 001801), and D2.B10 (DBA/2-congenic) Dmd^mdx (DBA/2J mdx, stock no. 013141) mice were from The Jackson Laboratory. Sprague-Dawley rats were purchased from Charles River Laboratories. For ex vivo experiments, mice were 10–16 weeks old. For in situ experiments, mice were 8–14 weeks of age. For in vivo chronic dosing studies, mdx and DBA/2J mdx were 4–5 weeks of age at study start. Dosing was via a 10 mL/kg suspension (1% methyl cellulose, 0.1% Tween 80 in water). For studies in 14-day-old preweaning mice, PO dosing was via syrup suspension (3 mg/kg/d). GRMD were supplied by Texas A&M Department of Veterinary Integrative Biosciences.
For sterile muscle injury, mice were anesthetized with isoflurane and 50 μL cardiotoxin (12 × 10^–6 M, 217503, Millipore) injected in the TA muscle. Muscles 8 days after injury were snap frozen in nitrogen-chilled isopentane. 8 μm cryosections were cut and stained with H&E. For each analysis, more than 10 slides (per condition/group) containing 6 muscle sections/sample were used, and myofibers in the injured area were counted and measured with a Mirax digital scanner and HALO software ([68]). For adult mouse studies, muscles were fixed in 10% formalin and embedded in paraffin for sectioning. Laminin staining (RB-082, Thermo Fisher Scientific) was used to outline fibers, and picrosirius red was used for collagen accumulation. Image analysis was performed using ImarisX64 software (Bitplane AG), and fiber sizing was calculated using minimal Feret’s diameter ([69]). For after weaning juvenile mouse studies, cryosections from soleus muscles were mounted in ProLong antifade mountant with DAPI (Thermo Fisher Scientific). Fiber type, size, and central nucleation were quantified with analysis via SMASH ([70]) and ImageJ (NIH). Antibodies used were mouse anti-MHC2A (1:50, SC-71, Developmental Studies Hybridoma Bank) and mouse anti-eMHC (1:10, BF-45, Developmental Studies Hybridoma Bank).

OPRD1 = molecular target: T5, OPRD1 (Homo sapiens, UniProt P41143); assay: SAFETYscan cAMP; type: cell-based; design: dose or concentration left out as unconfirmed
T5 construct: purchased Eurofins DiscoverX (KINOMEscan; SAFETYscan E/IC50 ELECT)
T5 sequence (P41143 whole entry): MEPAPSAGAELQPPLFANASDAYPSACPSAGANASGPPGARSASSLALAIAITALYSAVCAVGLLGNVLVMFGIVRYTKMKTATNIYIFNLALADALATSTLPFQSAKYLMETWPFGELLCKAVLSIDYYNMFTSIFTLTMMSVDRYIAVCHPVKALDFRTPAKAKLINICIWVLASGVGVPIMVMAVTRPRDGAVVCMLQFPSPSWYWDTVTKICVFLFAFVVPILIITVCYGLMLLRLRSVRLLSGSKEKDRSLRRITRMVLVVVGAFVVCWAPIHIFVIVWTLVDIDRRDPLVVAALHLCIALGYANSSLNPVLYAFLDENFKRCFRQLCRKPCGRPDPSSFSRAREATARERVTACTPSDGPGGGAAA
Description: (§1) The specificity of EDG-5506 for fast skeletal myosin over other, unrelated proteins was confirmed using two off-target binding and activity screens. […] A second off-target panel (SAFETYscan E/IC50 ELECT, Eurofins DiscoverX) tested in vitro enzyme activity against 78 proteins, including GPCR, ion channel, kinases, nuclear hormone receptors, and transporters. In all assays, the IC50 of EDG-5506 was more than 10 μM (Supplemental Data File 1).

DRD1 = molecular target: T6, DRD1 (Homo sapiens, UniProt P21728); assay: SAFETYscan cAMP; type: cell-based; design: dose or concentration left out as unconfirmed
T6 construct: purchased Eurofins DiscoverX (KINOMEscan; SAFETYscan E/IC50 ELECT)
T6 sequence (P21728 whole entry): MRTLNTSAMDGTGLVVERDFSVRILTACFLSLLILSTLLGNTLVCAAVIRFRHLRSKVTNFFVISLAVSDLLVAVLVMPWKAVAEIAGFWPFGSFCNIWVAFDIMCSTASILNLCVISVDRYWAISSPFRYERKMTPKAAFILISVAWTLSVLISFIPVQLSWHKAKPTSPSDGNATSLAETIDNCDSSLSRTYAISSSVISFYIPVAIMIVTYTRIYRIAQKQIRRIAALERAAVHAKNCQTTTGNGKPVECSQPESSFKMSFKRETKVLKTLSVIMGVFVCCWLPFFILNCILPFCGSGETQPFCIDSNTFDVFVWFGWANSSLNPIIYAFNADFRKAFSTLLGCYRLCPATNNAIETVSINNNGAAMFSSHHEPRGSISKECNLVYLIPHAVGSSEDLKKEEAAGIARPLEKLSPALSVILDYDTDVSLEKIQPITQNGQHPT
Description: as §1

HRH2 = molecular target: T7, HRH2 (Homo sapiens, UniProt P25021); assay: SAFETYscan cAMP; type: cell-based; design: dose or concentration left out as unconfirmed
T7 construct: purchased Eurofins DiscoverX (KINOMEscan; SAFETYscan E/IC50 ELECT)
T7 sequence (P25021 whole entry): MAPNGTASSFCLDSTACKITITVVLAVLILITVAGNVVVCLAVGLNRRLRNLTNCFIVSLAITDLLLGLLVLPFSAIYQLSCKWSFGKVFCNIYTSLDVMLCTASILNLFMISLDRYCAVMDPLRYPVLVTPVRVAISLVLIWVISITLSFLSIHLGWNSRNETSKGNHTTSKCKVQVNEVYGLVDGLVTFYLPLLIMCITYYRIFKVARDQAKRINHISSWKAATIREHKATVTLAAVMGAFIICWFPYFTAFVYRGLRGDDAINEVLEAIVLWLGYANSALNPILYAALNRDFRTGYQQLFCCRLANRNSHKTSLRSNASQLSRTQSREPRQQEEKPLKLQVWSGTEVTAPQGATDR
Description: as §1

OPRM1 = molecular target: T8, OPRM1 (Homo sapiens, UniProt P35372); assay: SAFETYscan cAMP; type: cell-based; design: dose or concentration left out as unconfirmed
T8 construct: purchased Eurofins DiscoverX (KINOMEscan; SAFETYscan E/IC50 ELECT)
T8 sequence (P35372 whole entry): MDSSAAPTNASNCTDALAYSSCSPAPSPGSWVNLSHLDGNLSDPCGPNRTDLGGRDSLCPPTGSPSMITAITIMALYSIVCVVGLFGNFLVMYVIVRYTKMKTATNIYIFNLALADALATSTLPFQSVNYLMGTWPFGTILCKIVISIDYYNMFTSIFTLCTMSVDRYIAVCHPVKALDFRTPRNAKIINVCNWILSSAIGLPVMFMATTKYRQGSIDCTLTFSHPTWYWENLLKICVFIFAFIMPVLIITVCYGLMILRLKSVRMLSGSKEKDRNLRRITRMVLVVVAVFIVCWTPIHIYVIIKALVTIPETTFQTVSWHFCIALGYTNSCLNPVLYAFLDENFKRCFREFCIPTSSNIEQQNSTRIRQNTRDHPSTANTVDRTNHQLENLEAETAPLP
Description: as §1

CNR1 = molecular target: T9, CNR1 (Homo sapiens, UniProt P21554); assay: SAFETYscan cAMP; type: cell-based; design: dose or concentration left out as unconfirmed
T9 construct: purchased Eurofins DiscoverX (KINOMEscan; SAFETYscan E/IC50 ELECT)
T9 sequence (P21554 whole entry): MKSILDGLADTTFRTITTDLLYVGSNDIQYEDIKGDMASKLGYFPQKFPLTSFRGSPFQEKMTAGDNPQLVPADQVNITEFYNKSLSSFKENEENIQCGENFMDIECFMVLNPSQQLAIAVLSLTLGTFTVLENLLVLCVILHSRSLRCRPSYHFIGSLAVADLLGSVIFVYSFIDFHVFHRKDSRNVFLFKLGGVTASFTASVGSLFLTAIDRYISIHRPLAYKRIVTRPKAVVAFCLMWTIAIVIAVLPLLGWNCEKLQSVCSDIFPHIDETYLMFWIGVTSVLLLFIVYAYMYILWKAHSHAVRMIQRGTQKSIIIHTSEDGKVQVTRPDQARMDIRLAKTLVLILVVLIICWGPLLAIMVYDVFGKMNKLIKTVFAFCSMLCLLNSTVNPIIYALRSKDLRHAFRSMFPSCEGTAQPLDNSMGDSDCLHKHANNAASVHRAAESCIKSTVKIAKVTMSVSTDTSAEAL
Description: as §1

HTR1A = molecular target: T10, HTR1A (Homo sapiens, UniProt P08908); assay: SAFETYscan cAMP; type: cell-based; design: dose or concentration left out as unconfirmed
T10 construct: purchased Eurofins DiscoverX (KINOMEscan; SAFETYscan E/IC50 ELECT)
T10 sequence (P08908 whole entry): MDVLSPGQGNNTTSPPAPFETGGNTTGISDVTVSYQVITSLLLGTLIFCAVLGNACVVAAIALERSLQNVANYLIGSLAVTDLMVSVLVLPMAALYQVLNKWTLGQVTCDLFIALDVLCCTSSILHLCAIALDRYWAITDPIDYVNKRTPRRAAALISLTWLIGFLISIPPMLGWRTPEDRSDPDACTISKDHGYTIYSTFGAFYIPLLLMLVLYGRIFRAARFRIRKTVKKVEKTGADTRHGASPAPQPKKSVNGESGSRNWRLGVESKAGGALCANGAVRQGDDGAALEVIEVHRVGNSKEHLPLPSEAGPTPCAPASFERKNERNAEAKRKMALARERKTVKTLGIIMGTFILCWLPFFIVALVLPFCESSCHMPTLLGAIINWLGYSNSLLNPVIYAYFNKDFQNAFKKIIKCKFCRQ
Description: as §1

ADRA2A = molecular target: T11, ADRA2A (Homo sapiens, UniProt P08913); assay: SAFETYscan cAMP; type: cell-based; design: dose or concentration left out as unconfirmed
T11 construct: purchased Eurofins DiscoverX (KINOMEscan; SAFETYscan E/IC50 ELECT)
T11 sequence (P08913 whole entry): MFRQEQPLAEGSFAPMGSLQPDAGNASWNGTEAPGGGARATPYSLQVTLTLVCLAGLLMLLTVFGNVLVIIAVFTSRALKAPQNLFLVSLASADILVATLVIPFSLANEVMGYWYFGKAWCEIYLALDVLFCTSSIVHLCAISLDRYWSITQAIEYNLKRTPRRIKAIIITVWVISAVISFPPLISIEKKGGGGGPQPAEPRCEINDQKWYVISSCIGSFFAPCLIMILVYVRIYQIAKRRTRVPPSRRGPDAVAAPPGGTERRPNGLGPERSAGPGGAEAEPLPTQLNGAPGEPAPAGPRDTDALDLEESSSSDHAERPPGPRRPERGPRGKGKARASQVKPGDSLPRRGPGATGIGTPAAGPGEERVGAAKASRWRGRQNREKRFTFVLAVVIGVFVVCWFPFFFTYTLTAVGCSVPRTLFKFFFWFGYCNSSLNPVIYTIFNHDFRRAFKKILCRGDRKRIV
Description: as §1

ADRB1 = molecular target: T12, ADRB1 (Homo sapiens, UniProt P08588); assay: SAFETYscan cAMP; type: cell-based; design: dose or concentration left out as unconfirmed
T12 construct: purchased Eurofins DiscoverX (KINOMEscan; SAFETYscan E/IC50 ELECT)
Description: as §1

DRD2S = molecular target: T13, DRD2S (Homo sapiens, UniProt P14416); assay: SAFETYscan cAMP; type: cell-based; design: dose or concentration left out as unconfirmed
T13 construct: purchased Eurofins DiscoverX (KINOMEscan; SAFETYscan E/IC50 ELECT)
T13 sequence (P14416 1-414 isoform P14416-2): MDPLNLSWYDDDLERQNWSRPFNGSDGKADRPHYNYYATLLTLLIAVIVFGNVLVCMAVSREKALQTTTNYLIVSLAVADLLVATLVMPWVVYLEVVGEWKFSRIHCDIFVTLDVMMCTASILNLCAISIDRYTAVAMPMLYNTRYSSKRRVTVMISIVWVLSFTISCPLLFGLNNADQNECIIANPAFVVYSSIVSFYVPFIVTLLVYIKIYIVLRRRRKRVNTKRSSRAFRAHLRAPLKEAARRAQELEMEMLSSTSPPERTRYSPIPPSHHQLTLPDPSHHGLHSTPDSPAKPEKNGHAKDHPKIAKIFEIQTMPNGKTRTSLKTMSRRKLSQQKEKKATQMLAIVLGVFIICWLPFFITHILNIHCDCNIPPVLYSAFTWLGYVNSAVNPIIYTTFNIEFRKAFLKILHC
Description: as §1

OPRK1 = molecular target: T14, OPRK1 (Homo sapiens, UniProt P41145); assay: SAFETYscan cAMP; type: cell-based; design: dose or concentration left out as unconfirmed
T14 construct: purchased Eurofins DiscoverX (KINOMEscan; SAFETYscan E/IC50 ELECT)
T14 sequence (P41145 whole entry): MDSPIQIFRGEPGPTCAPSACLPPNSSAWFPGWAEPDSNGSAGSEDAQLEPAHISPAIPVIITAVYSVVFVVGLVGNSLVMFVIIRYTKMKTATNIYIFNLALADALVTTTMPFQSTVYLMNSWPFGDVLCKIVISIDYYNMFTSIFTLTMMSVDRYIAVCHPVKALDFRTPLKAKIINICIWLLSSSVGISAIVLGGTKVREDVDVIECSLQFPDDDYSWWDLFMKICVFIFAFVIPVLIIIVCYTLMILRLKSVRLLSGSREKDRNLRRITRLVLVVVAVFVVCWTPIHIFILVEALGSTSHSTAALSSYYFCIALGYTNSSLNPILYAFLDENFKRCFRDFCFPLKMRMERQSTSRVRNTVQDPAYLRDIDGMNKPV
Description: as §1

HTR1B = molecular target: T15, HTR1B (Homo sapiens, UniProt P28222); assay: SAFETYscan cAMP; type: cell-based; design: dose or concentration left out as unconfirmed
T15 construct: purchased Eurofins DiscoverX (KINOMEscan; SAFETYscan E/IC50 ELECT)
T15 sequence (P28222 whole entry): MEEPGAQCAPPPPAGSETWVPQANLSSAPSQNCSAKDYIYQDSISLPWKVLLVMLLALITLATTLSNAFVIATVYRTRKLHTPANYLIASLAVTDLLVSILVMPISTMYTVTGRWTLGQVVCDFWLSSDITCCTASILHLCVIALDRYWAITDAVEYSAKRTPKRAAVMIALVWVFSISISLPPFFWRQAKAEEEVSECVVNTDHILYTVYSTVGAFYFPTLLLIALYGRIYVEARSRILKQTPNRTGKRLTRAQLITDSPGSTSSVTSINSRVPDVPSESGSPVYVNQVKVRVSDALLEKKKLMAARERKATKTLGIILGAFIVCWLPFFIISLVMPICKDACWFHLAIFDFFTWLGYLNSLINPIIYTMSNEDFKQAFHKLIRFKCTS
Description: as §1

ADRB2 = molecular target: T16, ADRB2 (Homo sapiens, UniProt P07550); assay: SAFETYscan cAMP; type: cell-based; design: dose or concentration left out as unconfirmed
T16 construct: purchased Eurofins DiscoverX (KINOMEscan; SAFETYscan E/IC50 ELECT)
T16 sequence (P07550 whole entry): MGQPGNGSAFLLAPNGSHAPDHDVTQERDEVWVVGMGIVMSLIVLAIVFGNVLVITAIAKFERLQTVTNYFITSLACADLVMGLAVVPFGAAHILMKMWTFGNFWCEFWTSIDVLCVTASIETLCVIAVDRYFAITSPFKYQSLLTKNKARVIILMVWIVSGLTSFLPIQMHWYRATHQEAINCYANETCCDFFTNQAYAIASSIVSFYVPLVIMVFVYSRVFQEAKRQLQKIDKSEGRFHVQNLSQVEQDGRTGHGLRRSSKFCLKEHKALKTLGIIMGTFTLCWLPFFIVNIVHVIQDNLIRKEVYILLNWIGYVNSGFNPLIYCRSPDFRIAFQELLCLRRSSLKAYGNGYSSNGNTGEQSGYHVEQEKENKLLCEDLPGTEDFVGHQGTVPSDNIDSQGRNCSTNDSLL
Description: as §1

CSNK1G2 = molecular target: T17, CSNK1G2 (Homo sapiens, UniProt P78368); assay: KINOMEscan scanEDGE; type: binding; conditions: 20 uM
T17 construct: purchased Eurofins DiscoverX (KINOMEscan; SAFETYscan E/IC50 ELECT)
Description: as §1

PCTK1 = molecular target: T18, PCTK1 (Homo sapiens, UniProt Q00536); assay: KINOMEscan scanEDGE; type: binding; conditions: 20 uM
T18 construct: purchased Eurofins DiscoverX (KINOMEscan; SAFETYscan E/IC50 ELECT)
Description: as §1

PIM3 = molecular target: T19, PIM3 (Homo sapiens, UniProt Q86V86); assay: KINOMEscan scanEDGE; type: binding; conditions: 20 uM
T19 construct: purchased Eurofins DiscoverX (KINOMEscan; SAFETYscan E/IC50 ELECT)
Description: as §1

GABAA = assay: SAFETYscan Ion Channel; type: cell-based; conditions: 10 uM
Description: as §1

MEK1 = molecular target: T20, MEK1 (Homo sapiens, UniProt Q02750); assay: KINOMEscan scanEDGE; type: binding; conditions: 20 uM
T20 construct: purchased Eurofins DiscoverX (KINOMEscan; SAFETYscan E/IC50 ELECT)

PIK3CA = molecular target: T21, PIK3CA (Homo sapiens, UniProt P42336); assay: KINOMEscan scanEDGE; type: binding; conditions: 20 uM
T21 construct: purchased Eurofins DiscoverX (KINOMEscan; SAFETYscan E/IC50 ELECT)

[1] = read-out: Max Response (%) (Agonist)
[2] = read-out: Max Response (%) (Antagonist)

O=c1ccc(-c2cnc(OCC(F)(F)F)nc2)nn1Cc1cncc(F)c1 [EDG-5506]
binding, % of control (PLK3): 95 % of control
binding, % of control (MARK3): 85 % of control
binding, % of control (PKAC-alpha): 100 % of control
binding, % of control (DYRK1B): 100 % of control
body or muscle weight (mdx mice; 8 weeks): no effect
diaphragm fibrosis (collagen, picrosirius red) (mdx mice; 8 weeks of treatment): decreased diaphragm fibrosis
average grip strength (mdx mice; after 5 weeks of dosing): increased average grip strength
Emax (OPRD1; [1]): 7.61%
Emax (OPRD1; [2]): 9.41%
Emax (DRD1; [1]): 3.04%
Emax (DRD1; [2]): 14.3%
Emax (HRH2; [1]): 0%
Emax (HRH2; [2]): 15%
Emax (OPRM1; [1]): 17.4%
Emax (OPRM1; [2]): 0.2%
Emax (CNR1; [1]): 14.8%
Emax (CNR1; [2]): 3.38%
Emax (HTR1A; [1]): 0%
Emax (HTR1A; [2]): 1.51%
Emax (ADRA2A; [1]): 19.2%
Emax (ADRA2A; [2]): 0.88%
Emax (ADRB1; [1]): 2.02%
Emax (ADRB1; [2]): 9.68%
Emax (DRD2S; [1]): 7.3%
Emax (DRD2S; [2]): 1.39%
Emax (OPRK1; [1]): 9.76%
Emax (OPRK1; [2]): 0.05%
Emax (HTR1B; [1]): 0%
Emax (HTR1B; [2]): 4.17%
Emax (ADRB2; [1]): 0.97%
Emax (ADRB2; [2]): 20.8%
binding, % of control (CSNK1G2): 96 % of control
binding, % of control (PCTK1): 100 % of control
binding, % of control (PIM3): 99 % of control
Max Response (%) (Agonist) (GABAA): 4.91%
Max Response (%) (Antagonist) (GABAA): 7.72%
binding, % of control (MEK1): 78 % of control
binding, % of control (PIK3CA): 100 % of control
